IC50 data for 26 compounds are collected here from patent US9850225B2, “Compounds useful as immunomodulators” (BRISTOL-MYERS SQUIBB COMPANY, priority 2014, dated 2017).

Each structure is given as a SMILES string. Where two headings read alike, the source gives them in different places.

This test deals with PD-1/PD-L1 interaction (PD-1-Ig / PD-L1-His) (Homo sapiens (Human), UniProt Q9NZQ7). Briefly: PD-1/PD-L1 Homogenous Time-Resolved Fluorescence (HTRF) binding assay. To be noted: PD-1/PD-L1 HTRF binding assay, read-out: Range or IC50. In short, it runs like this: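 Human PD-L1-His (10 nM final) was pre-incubated with inhibitor for 15 min, then PD-1-Ig (20 nM final) was added for a further 15 min in dPBS with 0.1% BSA and 0.05% Tween-20. Binding was detected by HTRF using Eu-cryptate anti-Ig (1 nM) and APC anti-His (20 nM).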
Sequence of PD-1/PD-L1 interaction (PD-1-Ig / PD-L1-His) (Q9NZQ7 other isoform, or with tags, fused parts or gaps): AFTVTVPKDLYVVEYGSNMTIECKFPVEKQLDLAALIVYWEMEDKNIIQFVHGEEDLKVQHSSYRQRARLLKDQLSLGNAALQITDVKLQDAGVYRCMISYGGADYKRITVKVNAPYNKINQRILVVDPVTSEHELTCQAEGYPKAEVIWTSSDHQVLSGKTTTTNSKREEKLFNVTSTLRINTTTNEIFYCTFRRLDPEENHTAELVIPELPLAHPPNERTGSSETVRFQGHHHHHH
A general note: In TR-FRET formats the signal depends on donor and acceptor labels being close together.

Consider `Cc1c(COc2cc(OCc3cncc(C(=O)O)c3)c(CN[C@@H](CCCN)C(=O)O)cc2Cl)cccc1-c1ccc2c(c1)OCCO2` [Example 2002, (S)-5-((2-(((4-amino-1-carboxybutyl)amino)methyl)-4-chloro-5-((3-(2,3-dihydrobenzo[b][1,4]dioxin-6-yl)-2-methylbenzyl)oxy)phenoxy)methyl)nicotinic acid], for which the 50% inhibitory concentration (IC50) (numeric value) amounted to 10 nM.

As to `Cc1c(COc2cc(OCc3cccc(C#N)c3)c(CN[C@@H](CO)C(=O)O)cc2Br)cccc1-c1ccc2c(c1)OCCO2` [Example 1301, (S)-2-((5-bromo-2-((3-cyanobenzyl)oxy)-4-((3-(2,3-dihydrobenzo[b][1,4]dioxin-6-yl)-2-methylbenzyl)oxy)benzyl)amino)-3-hydroxypropanoic acid], the IC50 (value given as range class) lay in the range of 0.6 to 10 nM.

`Cc1c(COc2ccc(CN[C@H](CO)CC(=O)O)c(OCc3cccc(C#N)c3)c2)cccc1-c1ccc2c(c1)OCCO2` [Example 1126, (S)-3-((2-((3-cyanobenzyl)oxy)-4-((3-(2,3-dihydrobenzo[b][1,4]dioxin-6-yl)-2-methylbenzyl)oxy)benzyl)amino)-4-hydroxybutanoic acid]: the 50% inhibitory concentration (IC50) (value given as range class) fell in the range of 0.6 to 10 nM.

As to `Cc1c(COc2cc(OCc3cncc(C#N)c3)c(CN3CCCC[C@H]3C(=O)NS(=O)(=O)c3cn(C)cn3)cc2Cl)cccc1-c1ccc2c(c1)OCCO2` [Example 1261, (S)-1-(5-chloro-2-((5-cyanopyridin-3-yl)methoxy)-4-((3-(2,3-dihydrobenzo[b][1,4]dioxin-6-yl)-2-methylbenzyl)oxy)benzyl)-N-((1-methyl-1H-imidazol-4-yl)sulfonyl)piperidine-2-carboxamide], where the note is “value given as range class”, the 50% inhibitory concentration (IC50) was 0.6 to 10 nM.

Turning to `Cc1c(COc2cc(OCc3cccc(C#N)c3)c(CN(C)[C@@H](CO)C(=O)O)cc2Cl)cccc1-c1ccc2c(c1)OCCO2` [Example 1183, (S)-2-((5-chloro-2-((3-cyanobenzyl)oxy)-4-((3-(2,3-dihydrobenzo[b][1,4]dioxin-6-yl)-2-methylbenzyl)oxy)benzyl)(methyl)amino)-3-hydroxypropanoic acid], the IC50 (value given as range class) lay within 0.6 to 10 nM.

Consider `Cc1c(COc2cc(OCc3cncc(S(C)(=O)=O)c3)c(CO)cc2Cl)cccc1-c1ccc2c(c1)OCCO2` [Example 3013, (5-chloro-4-{[3-(2,3-dihydro-1,4-benzodioxin-6-yl)-2-methylphenyl]methoxy}-2-[(5-methanesulfonylpyridin-3-yl)methoxy]phenyl)methanol], for which the IC50 (numeric value) was 80 nM.

As to `CC(=O)NCCNCc1c(C)cc(OCc2cccc(-c3ccc4c(c3)OCCO4)c2C)cc1OCc1cncc(C#N)c1` [Example 1005, N-(2-(2-((5-cyanopyridin-3-yl)methoxy)-4-(3-(2,3-dihydrobenzo[b][1,4]dioxin-6-yl)-2-methylbenzyloxy)-6-methylbenzylamino)ethyl)acetamide], under “value given as range class”, the 50% inhibitory concentration (IC50) lay in the range of 0.6 to 10 nM.

Turning to `Cc1c(COc2cc(OCc3cccc(C#N)c3)c(CNC(Cc3nccs3)C(=O)O)cc2Cl)cccc1-c1ccc2c(c1)OCCO2` (stereo not drawn) [Example 1178, 2-((5-chloro-2-((3-cyanobenzyl)oxy)-4-((3-(2,3-dihydrobenzo[b][1,4]dioxin-6-yl)-2-methylbenzyl)oxy)benzyl)amino)-3-(thiazol-2-yl)propanoic acid], the IC50 (value given as range class) is 10 to 100 nM.

In the case of `Cc1c(COc2cc(OCc3cncc(C#N)c3)c(CNC[C@@H](O)CC(=O)O)cc2Cl)cccc1-c1ccc2c(c1)OCCO2` [Example 1250, (S)-4-((5-chloro-2-((5-cyanopyridin-3-yl)methoxy)-4-((3-(2,3-dihydrobenzo[b][1,4]dioxin-6-yl)-2-methylbenzyl)oxy)benzyl)amino)-3-hydroxybutanoic acid], the concentration for half-maximal inhibition (IC50) (numeric value) is 1.19 nM.

In the case of `CC(=O)NCCNCc1ccc(OCc2cccc(-c3ccccc3)c2C)cc1OCc1cccc(NC(=O)OC(C)(C)C)c1` [Example 1119, tert-butyl (3-((2-(((2-acetamidoethyl)amino)methyl)-5-((2-methyl-[1,1′-biphenyl]-3-yl)methoxy)phenoxy)methyl)phenyl)carbamate], under “numeric value”, the IC50 turned out to be 14200 nM.

Take `CC(=O)NCCNCc1ccc(OCc2cccc(-c3ccccc3)c2C)cc1OCc1ccccc1S(C)(=O)=O` [Example 1041, N-(2-((4-((2-methyl-[1,1′-biphenyl]-3-yl)methoxy)-2-((2-(methylsulfonyl)benzyl)oxy)benzyl)amino)ethyl)acetamide]: the concentration for half-maximal inhibition (IC50) (value given as range class) was in the range of 100 to 20000 nM.

As for `Cc1c(COc2ccc(CN[C@](C)(CO)C(=O)O)c(OCc3ccc(F)c(C#N)c3)c2)cccc1-c1ccccc1` [Example 1333, (R)-2-((2-((3-cyano-4-fluorobenzyl)oxy)-4-((2-methyl-[1,1′-biphenyl]-3-yl)methoxy)benzyl)amino)-3-hydroxy-2-methylpropanoic acid], under “value given as range class”, the IC50 is 0.6 to 10 nM.

For `CC(=O)NCCNCc1ccc(OCc2cccc(-c3ccccc3)c2C)cc1OCc1ccc2nc(C(F)(F)F)cc(Cl)c2c1` [Example 1083, N-(2-((2-((4-chloro-2-(trifluoromethyl)quinolin-6-yl)methoxy)-4-((2-methyl-[1,1′-biphenyl]-3-yl)methoxy)benzyl)amino)ethyl)acetamide], the half-inhibitory concentration (IC50) (value given as range class) was in the range of 100 to 20000 nM.

`CC(=O)NCCNCc1ccc(OCc2cccc(-c3ccccc3)c2C)cc1OCc1cccc(OC(F)F)c1` [Example 1116, N-(2-((2-((3-(difluoromethoxy)benzyl)oxy)-4-((2-methyl-[1,1′-biphenyl]-3-yl)methoxy)benzyl)amino)ethyl)acetamide]: the concentration for half-maximal inhibition (IC50) (value given as range class) was 100 to 20000 nM.

In the case of `CC(=O)NCCNCc1ccc(OCc2cccc(-c3ccccc3)c2C)cc1OCc1cccc(C#N)c1` [Example 1028, N-(2-((2-((3-cyanobenzyl)oxy)-4-((2-methyl-[1,1′-biphenyl]-3-yl)methoxy)benzyl)amino)ethyl)acetamide], where the note is “value given as range class”, the 50% inhibitory concentration (IC50) fell in the range of 10 to 100 nM.

Take `CC(=O)NCCNCc1ccc(OCc2cccc(-c3ccccc3)c2C)c(Cl)c1OCc1cccc(C#N)c1` [Example 1234, N-(2-(3-chloro-2-(3-cyanobenzyloxy)-4-((2-methylbiphenyl-3-yl)methoxy)benzylamino)ethyl)acetamide]: for the setting “value given as range class”, the IC50 is 100 to 20000 nM.

For the compound `Cc1c(COc2cc(OCc3ccnc(C(=O)N(C)C)c3)c(CN[C@@](C)(CO)C(=O)O)cc2Cl)cccc1-c1ccc2c(c1)OCCO2` [Example 3018, (S)-2-((5-chloro-4-((3-(2,3-dihydrobenzo[b][1,4]dioxin-6-yl)-2-methylbenzyl)oxy)-2-((2-(dimethylcarbamoyl)pyridin-4-yl)methoxy)benzyl)amino)-3-hydroxy-2-methylpropanoic acid], under “value given as range class”, the IC50 lay in the range of 0.6 to 10 nM.

As for `CC(=O)NCCNCc1cc(C)c(OCc2cccc(-c3ccc4c(c3)OCCO4)c2C#N)cc1OCc1cncc(C#N)c1` [Example 1305, N-(2-(4-(2-cyano-3-(2,3-dihydrobenzo[b][1,4]dioxin-6-yl)benzyloxy)-2-((5-cyanopyridin-3-yl)methoxy)-5-methylbenzylamino)ethyl)acetamide], the IC50 (numeric value) was determined as 0.92 nM and the IC50 (value given as range class) lay in the range of 0.6 to 10 nM.

`CC(=O)NCCNCc1ccc(OCc2cccc(-c3ccccc3)c2C)cc1OCc1ccccc1C` [Example 1045, N-(2-((4-((2-methyl-[1,1′-biphenyl]-3-yl)methoxy)-2-((2-methylbenzyl)oxy)benzyl)amino)ethyl)acetamide]: the 50% inhibitory concentration (IC50) (value given as range class) is 100 to 20000 nM.

Regarding `COC(=O)c1ccc(COc2cc(OCc3cccc(-c4ccccc4)c3C)ccc2CNCCNC(C)=O)cc1` [Example 1067, methyl 4-((2-(((2-acetamidoethyl)amino)methyl)-5-((2-methyl-[1,1′-biphenyl]-3-yl)methoxy)phenoxy)methyl)benzoate], the IC50 (value given as range class) was in the range of 100 to 20000 nM.

Consider `Cc1c(COc2cc(OCc3cccc(C#N)c3)c(CNC(Cc3ccccc3O)C(=O)O)cc2Cl)cccc1-c1ccc2c(c1)OCCO2` (stereo not drawn) [Example 1181, 2-((5-chloro-2-((3-cyanobenzyl)oxy)-4-((3-(2,3-dihydrobenzo[b][1,4]dioxin-6-yl)-2-methylbenzyl)oxy)benzyl)amino)-3-(2-hydroxyphenyl)propanoic acid], for which the 50% inhibitory concentration (IC50) (value given as range class) lay within 10 to 100 nM.

Turning to `Cc1c(COc2cc(OCc3cccc(C#N)c3)c(CN[C@H](COCc3ccccc3)C(=O)O)cc2Cl)cccc1-c1ccc2c(c1)OCCO2` [Example 1194, (R)-3-(benzyloxy)-2-((5-chloro-2-((3-cyanobenzyl)oxy)-4-((3-(2,3-dihydrobenzo[b][1,4]dioxin-6-yl)-2-methylbenzyl)oxy)benzyl)amino)propanoic acid], the IC50 (value given as range class) lay within 10 to 100 nM.

On to `CC(=O)NCCNCc1ccc(OCc2cccc(-c3ccccc3)c2C)cc1OCc1ccccc1C(F)(F)F` [Example 1066, N-(2-((4-((2-methyl-[1,1′-biphenyl]-3-yl)methoxy)-2-((2-(trifluoromethyl)benzyl)oxy)benzyl)amino)ethyl)acetamide], for which the IC50 (value given as range class) is 100 to 20000 nM.

Take `Cc1cc(CN[C@](C)(CO)C(=O)O)c(OCc2cncc(C#N)c2)cc1OCc1cccc(-c2ccc3c(c2)OCCO3)c1Cl` [Example 1156, (R)-2-(4-(2-chloro-3-(2,3-dihydrobenzo[b][1,4]dioxin-6-yl)benzyloxy)-2-((5-cyanopyridin-3-yl)methoxy)-5-methylbenzylamino)-3-hydroxy-2-methylpropanoic acid]: the half-maximal inhibitory concentration (IC50) (value given as range class) lay in the range of 0.6 to 10 nM.

Consider `Cc1c(COc2cc(OCc3cncc(C(=O)O)c3)c(CN[C@@](C)(CO)C(=O)O)cc2Cl)cccc1-c1ccc2c(c1)OCCO2` [Example 2001, (S)-5-((2-(((2-carboxy-1-hydroxypropan-2-yl)amino)methyl)-4-chloro-5-((3-(2,3-dihydrobenzo[b][1,4]dioxin-6-yl)-2-methylbenzyl)oxy)phenoxy)methyl)nicotinic acid], for which, where the note is “value given as range class”, the IC50 fell in the range of 0.6 to 10 nM.

Turning to `Cc1c(COc2ccc(CN[C@H](CO)C(=O)O)c(OCc3cccc(C#N)c3)c2)cccc1-c1ccc2c(c1)OCCO2` [Example 1122, (R)-2-(2-(3-cyanobenzyloxy)-4-(3-(2,3-dihydrobenzo[b][1,4]dioxin-6-yl)-2-methylbenzyloxy)benzylamino)-3-hydroxypropanoic acid], the half-inhibitory concentration (IC50) (value given as range class) was 0.6 to 10 nM.

One may read the IC50 as the concentration that inhibits the measured activity by half.
